Reference: paper PMC11187126, “Structure and dynamics of the pyroglutamylated RF-amide peptide QRFP receptor GPR103” (Nature Communications, 2024)
Where two headings read alike, the source gives them in different places. No end group written: not given here.

Target: T1, wild-type GPR103 (Homo sapiens, UniProt Q96P65)
T1 construct: we used human full-length QRFPR-encoding plasmids; expressed in transfected cells; host or cells: HEK293 cells, pCAGGS vector
T1 sequence (Q96P65 1-431): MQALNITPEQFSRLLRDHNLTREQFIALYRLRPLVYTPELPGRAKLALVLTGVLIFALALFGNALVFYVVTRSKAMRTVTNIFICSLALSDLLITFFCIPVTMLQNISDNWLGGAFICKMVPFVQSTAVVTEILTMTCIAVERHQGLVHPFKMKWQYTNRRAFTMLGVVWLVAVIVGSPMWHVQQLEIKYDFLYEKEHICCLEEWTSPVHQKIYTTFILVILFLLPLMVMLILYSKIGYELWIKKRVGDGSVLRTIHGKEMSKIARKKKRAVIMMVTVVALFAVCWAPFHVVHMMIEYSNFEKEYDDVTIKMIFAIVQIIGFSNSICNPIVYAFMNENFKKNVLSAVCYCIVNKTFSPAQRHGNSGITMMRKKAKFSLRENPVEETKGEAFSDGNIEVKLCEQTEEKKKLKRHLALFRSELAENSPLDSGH
Experiment: TGFα shedding assay, HEK293 cells; WT titrated to lower expression (1:1 to 1:50)
Format: cell-based
Protocol: For the TGFα shedding assay and the flow cytometry analysis, we used human full-length QRFPR-encoding plasmids. Specifically, GPR103 was N-terminally modified with an HA signal sequence followed by a FLAG epitope and then a flexible linker ([…]; the FLAG epitope is underlined) and inserted into the pCAGGS vector. Plasmid encoding GPR103 mutants were generated using Quickchange Site-Directed Mutagensis kit (Agilent).
The TGFα shedding assay was performed as described previously with minor modifications. Plasmid transfection was performed in a 6-well plate with a mixture of 500 ng (per well in a 6-well plate) AP-TGFα-encoding plasmid and 200 ng GPR103-encoding plasmid. After 1-day culture, the transfected cells were harvested by trypsinization, pelleted by centrifugation at 190 × g for 5 min, and washed once with 5 mM HEPES (pH 7.4)-containing Hank’s Balanced Salt Solution (HBSS). After centrifugation, the cells were resuspended in 8 mL of the HEPES-containing HBSS. The cell suspension was seeded in a 96-well culture plate (cell plate) at a volume of 90 μL (per well hereafter) and incubated in a 37 °C incubator with 5% CO2 for 30 min. […] After spinning the cell plates at 190 × g for 2 min, 80 μL of conditioned media was transferred to an empty 96-well plate (conditioned media (CM) plate). Then, 80 μL of AP reaction solution (10 mM p-nitrophenylphosphate (p-NPP), 120 mM Tris-HCl (pH 9.5), 40 mM NaCl, and 10 mM MgCl2) was dispensed into the cell plates and the CM plates. Absorbance at 405 nm of the plates was measured using a microplate reader (SpectraMax 340 PC384, Molecular Devices) before and after 1-h incubation at room temperature. Ligand-induced AP-TGFα release was calculated by subtracting spontaneous AP-TGFα release signal from ligand-induced AP-TGFα release signal. The AP-TGFα release signals were fitted to a four-parameter sigmoidal concentration–response curve, using the Prism 10 software (GraphPad Prism). For each replicate experiment, the pEC50 parameter (negative logarithmic values of EC50 values) of the individual GPR103 mutants were normalized to that of the wild-type GPR103 performed in parallel, and resulting ∆pEC50 values were used to denote ligand response activity of the mutants. […]
Exp. le vel: WT (1:5 0)Exp. le vel: WT (1:5 0)Exp. le vel: WT (1:5 0)Exp. le vel: WT (1:2 0)Exp. le vel: WT (1:2 0)Exp. le vel: WT (1:1 0) […]
L1 4N - t e r mA F2 5N - t e r mA I 2 6N - t e r mA Y 2 9N - t e r mA C 9 82 .5 7A T10 22 .6 1A Exp . l eve l: WT (1 :5)Exp . l evel : >WT (1 :1)Exp. le vel: WT (1:2 0)Exp. le vel: WT (1:2 0)Exp. le vel: WT (1:5 0)Exp . l eve l: WT (1 :1) […]
Exp. le vel: WT (1:1 0)Exp. le vel: WT (1:2 0) C 1 1 83 .2 5AExp. le vel: WT (1:5 0)Exp. le vel: WT (1:5 0)Exp. le vel: WT (1:2 0)Exp . l eve l: WT (1 :5) […]
Exp. le vel: WT (1:5 0)Exp. le vel: WT (1:1 0)Exp. le vel: WT (1:5 0) E203ECL2AExp . l evel : >WT (1 :1)Exp. le vel: WT (1:5 0)Exp. le vel: WT (1:5 0) […]
Exp . l eve l: WT (1 :1) F28Exp. le vel: WT (1:5 0) C 2 8 56 .4 7AExp. le vel: WT (1:2 0) WExp. le vel: WT (1:2 0) F28Exp. le vel: WT (1:5 0)Exp . l evel : >WT (1 :1) […]
Exp. le vel: WT (1:5 0)Exp. le vel: WT (1:5 0) C 3 2 77 .4 8AExp . l eve l: WT (1 :5)Exp . l evel : >WT (1 :1)Exp . l evel : >WT (1 :1) […]
Suppl eme nt ary Figure 1 | Mutational analysis of GPR103. […]
mutants. Data are presented as mean values ± SEM, normally n=3-5; dots), each performed in triplicate. b-d Cell-surface expression (b) and QRFP26-in-duced activation of GPR103 (c, d) were analyzed by the flow cytometry and the TGFα shedding assay, respectively. From the concentration–response curves (a), Emax (c) and ΔpEC50 (d) values relative to the wild type were calculated. Colors in the mutant bars indicate an expression level matching to that of titrated wild type. Statistical analyses were performed using the ordinary one-way ANOVA followed by Dunnett tests with the expression-matched […]

TSGPLGNLAEELNGYSRKKGGFSFRF-NH2 [QRFP26]
Emax (HEK293, WT (1:2), mean, read-out: Emax): 102%
Emax (HEK293, WT (1:2), n = 5, read-out: Emax): 102 ± 1.4%
Emax (HEK293, WT (1:5), mean, read-out: Emax): 98%
Emax (HEK293, WT (1:10), mean, read-out: Emax): 85.2%
Emax (HEK293, WT (1:10), n = 5, read-out: Emax): 86.5 ± 1.5%
Emax (HEK293, WT (1:20), mean, read-out: Emax): 68.7%
Emax (HEK293, WT (1:20), n = 5, read-out: Emax): 69.6 ± 1.9%
Emax (HEK293, WT (1:50), mean, read-out: Emax): 40%
Emax (HEK293, WT (1:50), n = 3, read-out: Emax): 38.9 ± 2.7%
EC50 (WT (1:1), n = 5): 5.13 nM
Emax (WT (1:2), Exp. #1): 99.44 % WT
Emax (WT (1:2), Exp. #2): 98.59 % WT
Emax (WT (1:2), Exp. #3): 107.25 % WT
Emax (WT (1:2), Exp. #4): 101.53 % WT
Emax (WT (1:2), Exp. #5): 103.42 % WT
EC50 (WT (1:2), n = 5): 6.61 nM
Emax (WT (1:5), Exp. #1): 95.01 % WT
Emax (WT (1:5), Exp. #2): 93.02 % WT
Emax (WT (1:5), Exp. #3): 103.20 % WT
Emax (WT (1:5), Exp. #4): 97.64 % WT
Emax (WT (1:5), Exp. #5): 100.97 % WT
EC50 (WT (1:5), n = 5): 12.6 nM
Emax (WT (1:10), Exp. #1): 87.43 % WT
Emax (WT (1:10), Exp. #2): 82.73 % WT
Emax (WT (1:10), Exp. #3): 90.71 % WT
Emax (WT (1:10), Exp. #4): 84.24 % WT
Emax (WT (1:10), Exp. #5): 81.03 % WT
EC50 (WT (1:10), n = 5): 15.1 nM
Emax (WT (1:20), Exp. #1): 70.65 % WT
Emax (WT (1:20), Exp. #2): 70.10 % WT
Emax (WT (1:20), Exp. #3): 74.01 % WT
EC50 (WT (1:20), n = 5): 21.4 nM
Emax (WT (1:50), Exp. #3): 46.11 % WT
Emax (WT (1:50), Exp. #4): 34.55 % WT
Emax (WT (1:50), Exp. #5): 39.32 % WT
EC50 (WT (1:50), n = 3): 53.7 nM
